Data: patent US11485697B2, “Antimalarial compositions and uses thereof” (THE SCRIPPS RESEARCH INSTITUTE, priority 2016, dated 2022)

Key:
[1] = Key in vitro ADME for Compound 2 (Table 36); conditions: for half-life: read-out: Hepatocyte T1/2
[2] = Dog PK, crystalline compound 2 suspension injected intramuscularly (Table 24A); assay type: in vivo; design: Clast: unit not given here; conditions: plasma analyte = labelled substance; for half-life / plasma exposure (in words): after IM crystalline Compound 2 10 mg/kg suspension
Protocol: Compound 2 was dosed in dog at 10 mg/kg (Injection volume: 0.5 mL/kg). The material was formulated as a 20 mg/mL suspension in 3% TPGS and 1% HPMC E5. […] Half-life of ELQ-300 was about […] as that of compound 2 (205 and 124 respectively).

[3] = tested on: sporozoites; assay: Sporozoite challenge at day 14 following IM administration of Compound 2 (percent protection, FIG. 2A); assay type: in vivo, mouse; conditions: IM Compound 2
Protocol: The exposure is not highly variable between animals in a given group. The Ctrough is about 83±32 nM for animals that are protected from infection.

[4] = Atovaquone plasma concentration following PO administration of Compound 27 (Table 29); assay type: in vivo, mice; conditions: Compound 27, PO; 28 d
Protocol: Animals (Male CD-1 mice, 7-9 weeks) were obtained from an approved vendor (SLAC Laboratory Animal Co. Ltd., Shanghai, China; or SIPPR-B&K Laboratory Animal Co. Ltd., Shanghai, China).
Animals were fasted at least 12 hours prior to the administration. All animals had access to Certified Rodent Diet (Catalog #M01-F, SLAC Laboratory Animal Cl. Ltd., Shanghai, China) ad libitum 4 hours post dosing.
Appropriate amount of test compound was accurately weighed and mixed with appropriate volume of vehicle to get a clear solution or a uniform suspension, vortexing or sonication in water bath was sometimes needed. The formulations were prepared on the day of dosing. Animals were dosed within four hours after the formulation was prepared. Two 20 μL aliquots of each formulation were removed from each of the formulation solutions, transferred into 1.5 mL of polypropylene microcentrifuge tubes and run dose validation by LC/UV or LC-MS/MS.
The PO dose formulation was administered via oral gavage following facility SOPs. […]
• Aliquots of the formulations were collected in the middle position of each dose formulation in duplicate. • The concentrations of the test compound in dose formulation samples were determined by the LC/UV or LC/MS/MS method. […]
Plasma concentration versus time data was analyzed by non-compartmental approaches using the Phoenix WinNonlin 6.3 software program. […]

[5] = after IM crystalline Compound 2 10 mg/kg, 20 mg/mL suspension in 3% TPGS, 1% HPMC E5

half-life ([1]; Dog hepatocytes) [h] | Liver S9 % remaining after 2 hours ([1]; Dog liver S9) [%] | Plasma % remaining after 2 hours ([1]; Dog plasma) [%] | half-life ([1]; Human hepatocytes) [h] | Liver S9 % remaining after 2 hours ([1]; Human liver S9) [%] | Plasma % remaining after 2 hours ([1]; Human plasma) [%] | Plasma % remaining after 2 hours ([1]; Monkey plasma) [%] | Plasma % remaining after 2 hours ([1]; Mouse plasma) [%] | Plasma % remaining after 2 hours ([1]; Rat plasma) [%] | half-life [2] [h] | AUC(0-inf) [2, 5] [µM·h] | AUC(0-t) [2, 5] [µM·h] | CL/F [2, 5] [mL/min/kg] | Clast [2, 5] | Cmax [2, 5] [nM] | T1/2 [2, 5] | Tmax [2, 5] [h] | average atovaquone plasma concentration [4] | SMILES | plasma exposure (in words) [2] | Ctrough (ELQ-300) for animals that are protected from infection [3]
0.367 | 47 | 83 | 1.28 | 35 | 82 | 85 | 0 | 0 | 124 | 18.1 | 16.4 | 14.4 | 4.5 (4.7) | 730 | 124 (34) h | 3 | – | CCCC(=O)OCOc1c(-c2ccc(Oc3ccc(OC(F)(F)F)cc3)cc2)c(C)nc2cc(OC)c(Cl)cc12 [Compound 2, (6-chloro-7-methoxy-2-methyl-3-(4-(4-(trifluoromethoxy)phenoxy)phenyl)quinolin-4-yloxy)methyl butyrate] | low but detectable throughout the duration of the study | about 83±32 nM
– | – | – | – | – | – | – | – | – | – | – | – | – | – | – | – | – | BQL | CCCCCCCCCC(=O)OC1=C(C2CCC(c3ccc(Cl)cc3)CC2)C(=O)c2ccccc2C1=O (stereo not shown) [Compound 27, 3-((1r,4r)-4-(4-chlorophenyl)cyclohexyl)-1,4-dioxo-1,4-dihydronaphthalen-2-yl decanoate] | – | –
– | – | – | – | – | – | – | – | – | 205 | 1290 | 1140 | 0.23 | – | 4640 | 205 (39) h | 48 | – | COc1cc2[nH]c(C)c(-c3ccc(Oc4ccc(OC(F)(F)F)cc4)cc3)c(=O)c2cc1Cl [ELQ-300, 6-chloro-7-methoxy-2-methyl-3-(4-(4-(trifluoromethoxy)phenoxy)phenyl)quinolin-4(1H)-one, reference compound] | several orders of magnitude higher than that of Compound 2 | –
